Literature values as cited in patent publication US8227223B2, “Method and apparatus for facilitating evaluating migration of cells in vitro” (Applied Biophysics, Inc., priority 2009, dated 2012).
Blank lines part the entries; values can stand above or below the molecule they belong to.

Columns and labels:
muscarinic receptor = details: CHO cells over expressing the muscarinic receptor
β-adrenergic receptor = details: BAEC endothelial cells
[1] = system: confluent bovine aortic endothelial cells

change of impedance upon binding of the agonist (muscarinic receptor; impedance at 4000 Hz): doubling of impedance
Molecule: C[N+](C)(C)CCOC(N)=O [carbachol]

Molecule: CC(C)NCC(O)c1ccc(O)c(O)c1 (stereo not shown) [isoproterenol]
change of impedance of the cell layer upon agonist binding (β-adrenergic receptor): readily measured increase in the impedance

inhibition of the carbachol impedance response (muscarinic receptor; antagonist against carbachol): can be inhibited
Molecule: CN1CCN(CC(=O)N2c3ccccc3C(=O)Nc3cccnc32)CC1 [pirenzepine]

Molecule: thrombin
change of impedance upon exposure (barrier function) [1]: drop in impedance
